In patent US9573957B2 (Boehringer Ingelheim International GmbH, priority 2013, dated 2017) one finds IC50 data, which are given here for 26 molecules.

Experiment [1] concerns synthesis of LTB4 in human whole blood. In words: LTB4 production inhibition assay in human whole blood (HWB). Format: cell-based. The settings on record: heparinized human whole blood, 15 min at 37° C., Calcimycin 20 μM 30 min, plasma LTB4 by HTRF. The procedure, abridged:
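Heparinized human whole blood preincubated with compound 15 min at 37° C, then stimulated with calcimycin (20 μM final) for 30 min at 37° C. Plasma separated by centrifugation; LTB4 measured by antibody-based homogeneous time-resolved fluorescence.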

The next experiment has as its target human LTA4 hydrolase (Homo sapiens (Human), UniProt P09960). Put plainly: LTA4H Enzyme assay (peptidase, Arg-AMC cleavage). The format is biochemical. The settings on record: LTA4H Enzyme 1 nM, Arg-AMC substrate 50 μM, room temperature 1 h, fluorescence. In a few lines: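 Peptidase activity of human LTA4H (1 nM final) on Arg-AMC (50 μM final), with compound, 1 h at room temperature. Buffer: 50 mM Tris-HCl pH 7.5, 100 mM KCl, 0.5% BSA.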

The term IC50 denotes the concentration at which inhibition is half-maximal.

The structures appear in SMILES notation.

Sequence of human LTA4 hydrolase (P09960 whole entry): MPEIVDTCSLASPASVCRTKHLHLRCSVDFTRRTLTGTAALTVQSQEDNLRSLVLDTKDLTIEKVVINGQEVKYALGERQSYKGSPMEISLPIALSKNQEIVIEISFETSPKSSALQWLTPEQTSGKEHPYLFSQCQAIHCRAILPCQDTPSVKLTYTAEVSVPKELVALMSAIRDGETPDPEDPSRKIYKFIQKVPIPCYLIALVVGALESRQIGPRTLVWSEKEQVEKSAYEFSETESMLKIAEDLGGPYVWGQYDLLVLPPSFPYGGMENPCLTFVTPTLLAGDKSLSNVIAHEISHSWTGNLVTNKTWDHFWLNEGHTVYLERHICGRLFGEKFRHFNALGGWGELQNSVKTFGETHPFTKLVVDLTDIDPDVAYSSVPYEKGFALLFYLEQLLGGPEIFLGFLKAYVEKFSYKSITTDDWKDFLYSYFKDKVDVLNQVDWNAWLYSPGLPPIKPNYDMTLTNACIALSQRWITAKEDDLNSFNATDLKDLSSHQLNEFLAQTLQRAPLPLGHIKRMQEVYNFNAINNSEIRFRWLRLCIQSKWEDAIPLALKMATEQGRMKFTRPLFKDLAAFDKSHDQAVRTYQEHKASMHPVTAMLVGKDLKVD

Turning to `O=C1CCCN1C1CCN(C[C@@H]2Cc3ccc(Oc4ccc(-c5ccn[nH]5)cn4)cc3O2)CC1` [Example 64, 1-(1-{(S)-6-[5-(2H-Pyrazol-3-yl)-pyridin-2-yloxy]-2,3-dihydro-benzofuran-2-ylmethyl}-piperidin-4-yl)-pyrrolidin-2-one], the IC50 in experiment [1] came to 150 nM; at human LTA4 hydrolase it was 0.95 nM.
`O=C(CO)N1CCN(CC2Cc3ccc(Oc4ccc(-c5ccn[nH]5)cn4)cc3O2)CC1` (stereo not shown) [Example 65, 2-Hydroxy-1-(4-{6-[5-(2H-pyrazol-3-yl)-pyridin-2-yloxy]-2,3-dihydro-benzofuran-2-ylmethyl}-piperazin-1-yl)-ethanone]: the results for the IC50 (in experiment [1]; on human LTA4 hydrolase) were 560 nM and 4.6 nM, respectively.
As to `CS(=O)(=O)N1CCN(Cc2ccc3cc(Oc4ccc(-c5ccn[nH]5)cn4)ccc3n2)CC1` [Example 66, 2-(4-Methanesulfonyl-piperazin-1-ylmethyl)-6-[5-(2H-pyrazol-3-yl)-pyridin-2-yloxy]-quinoline], the IC50 was determined as 430 nM in experiment [1] and 1.7 nM against human LTA4 hydrolase.
Regarding `CCS(=O)(=O)N1CCN(Cc2ccc3cc(Oc4ccc(-c5ccn[nH]5)cn4)ccc3n2)CC1` [Example 67, 2-(4-Ethanesulfonyl-piperazin-1-ylmethyl)-6-[5-(2H-pyrazol-3-yl)-pyridin-2-yloxy]-quinoline], the IC50 stood at 550 nM in experiment [1] and 2.9 nM against human LTA4 hydrolase.
As for `O=C1CCCN1C1CCN(CCC2COc3cc(Oc4ccc(-c5ccn[nH]5)cn4)ccc32)CC1` (stereo not shown) [Example 68, 1-[1-(2-{6-[5-(2H-Pyrazol-3-yl)-pyridin-2-yloxy]-2,3-dihydro-benzofuran-3-yl}-ethyl)-piperidin-4-yl]-pyrrolidin-2-one], the IC50 in experiment [1] was found to be 270 nM; against human LTA4 hydrolase, 1.1 nM.
With `O=C1OCCN1C1CCN(CCC2COc3cc(Oc4ccc(-c5ccn[nH]5)cn4)ccc32)CC1` (stereo not shown) [Example 69, 3-[1-(2-{6-[5-(2H-Pyrazol-3-yl)-pyridin-2-yloxy]-2,3-dihydro-benzofuran-3-yl}-ethyl)-piperidin-4-yl]-oxazolidin-2-one], the values for the IC50 (in experiment [1]; at human LTA4 hydrolase) were 210 nM and 0.75 nM, respectively.
For `O=C1[C@@H](O)CCN1C1CCN(CCC2COc3cc(Oc4ccc(-c5ccn[nH]5)cn4)ccc32)CC1` (stereo partly drawn) [Example 70, (S)-3-Hydroxy-1-[1-(2-{6-[5-(2H-pyrazol-3-yl)-pyridin-2-yloxy]-2,3-dihydro-benzofuran-3-yl}-ethyl)-piperidin-4-yl]-pyrrolidin-2-one], the IC50 in experiment [1] is 290 nM; against human LTA4 hydrolase, 1.7 nM.
Regarding `CS(=O)(=O)N1CCN(CCC2COc3cc(Oc4ccc(-c5ccn[nH]5)cn4)ccc32)CC1` (stereo not shown) [Example 71, 1-Methanesulfonyl-4-(2-{6-[5-(2H-pyrazol-3-yl)-pyridin-2-yloxy]-2,3-dihydro-benzofuran-3-yl}-ethyl)-piperazine], the results for the IC50 (in experiment [1]; against human LTA4 hydrolase) were 490 nM and 1.7 nM, respectively.
The like results for `O=C1CCCN1C1CCN(CCc2coc3cc(Oc4ccc(-c5ccn[nH]5)cn4)ccc23)CC1` [Example 72, 1-[1-(2-{6-[5-(2H-Pyrazol-3-yl)-pyridin-2-yloxy]-benzofuran-3-yl}-ethyl)-piperidin-4-yl]-pyrrolidin-2-one] were, in that order, 160 nM and 0.47 nM.
In the case of `O=C1[C@@H](O)CCN1C1CCN(CCc2coc3cc(Oc4ccc(-c5ccn[nH]5)cn4)ccc23)CC1` [Example 73, (S)-3-Hydroxy-1-[1-(2-{6-[5-(2H-pyrazol-3-yl)-pyridin-2-yloxy]-benzofuran-3-yl}-ethyl)-piperidin-4-yl]-pyrrolidin-2-one], the results for the IC50 (in experiment [1]; at human LTA4 hydrolase) were 220 nM and 0.73 nM, respectively.
Consider `CS(=O)(=O)N1CCN(CCc2coc3cc(Oc4ccc(-c5ccn[nH]5)cn4)ccc23)CC1` [Example 74, 1-Methanesulfonyl-4-(2-{6-[5-(2H-pyrazol-3-yl)-pyridin-2-yloxy]-benzofuran-3-yl}-ethyl)-piperazine], for which the IC50 in experiment [1] was found to be 350 nM; at human LTA4 hydrolase, 1.4 nM.
The like results for `CO[C@@H](C)C(=O)N1CCN(CCc2coc3cc(Oc4ccc(-c5ccn[nH]5)cn4)ccc23)CC1` [Example 75, (S)-2-Methoxy-1-[4-(2-{6-[5-(2H-pyrazol-3-yl)-pyridin-2-yloxy]-benzofuran-3-yl}-ethyl)-piperazin-1-yl]-propan-1-one] were, in that order, 250 nM and 0.88 nM.
The like results for `CO[C@H](C)C(=O)N1CCN(CCC2COc3cc(Oc4ccc(-c5ccn[nH]5)cn4)ccc32)CC1` (stereo partly drawn) [Example 76, (R)-2-Methoxy-1-[4-(2-{6-[5-(2H-pyrazol-3-yl)-pyridin-2-yloxy]-2,3-dihydro-benzofuran-3-yl}-ethyl)-piperazin-1-yl]-propan-1-one] were, in that order, 360 nM and 1.7 nM.
In the case of `COCC(=O)N1CCN(CCc2coc3cc(Oc4ccc(-c5ccn[nH]5)cn4)ccc23)CC1` [Example 77, 2-Methoxy-1-[4-(2-{6-[5-(2H-pyrazol-3-yl)-pyridin-2-yloxy]-benzofuran-3-yl}-ethyl)-piperazin-1-yl]-ethanone], the half-inhibitory concentration (IC50) in experiment [1] was 170 nM; against human LTA4 hydrolase, 0.88 nM.
For the molecule `CO[C@H](C)C(=O)N1CCN(CCc2coc3cc(Oc4ccc(-c5ccn[nH]5)cn4)ccc23)CC1` [Example 78, (R)-2-Methoxy-1-[4-(2-{6-[5-(2H-pyrazol-3-yl)-pyridin-2-yloxy]-benzofuran-3-yl}-ethyl)-piperazin-1-yl]-propan-1-one], the IC50 in experiment [1] stood at 190 nM; against human LTA4 hydrolase, 0.92 nM.
As for `CO[C@H](C)C(=O)N1CCN(Cc2cn3cc(Oc4ccc(-c5ccn[nH]5)cc4)ccc3n2)CC1` [Example 80, (R)-2-Methoxy-1-(4-{6-[4-(2H-pyrazol-3-yl)-phenoxy]-imidazo[1,2-a]pyridin-2-ylmethyl}-piperazin-1-yl)-propan-1-one], the IC50 in experiment [1] was determined as 200 nM; against human LTA4 hydrolase, 0.85 nM.
For `CC(C)(O)C(=O)N1CCN(CCC2COc3cc(Oc4ccc(-c5ccn[nH]5)cn4)ccc32)CC1` (stereo not shown) [Example 81, 2-Hydroxy-2-methyl-1-[4-(2-{6-[5-(2H-pyrazol-3-yl)-pyridin-2-yloxy]-2,3-dihydro-benzofuran-3-yl}-ethyl)-piperazin-1-yl]-propan-1-one], the IC50 came out at 580 nM in experiment [1] and 2.2 nM on human LTA4 hydrolase.
Turning to `O=C(CO)N1CCN(CCc2coc3cc(Oc4ccc(-c5ccn[nH]5)cn4)ccc23)CC1` [Example 82, 2-Hydroxy-1-[4-(2-{6-[5-(2H-pyrazol-3-yl)-pyridin-2-yloxy]-benzofuran-3-yl}-ethyl)-piperazin-1-yl]-ethanone], the 50% inhibitory concentration (IC50) is 410 nM in experiment [1] and 1.3 nM against human LTA4 hydrolase.
The like results for `C[C@H](O)C(=O)N1CCN(CCc2coc3cc(Oc4ccc(-c5ccn[nH]5)cn4)ccc23)CC1` [Example 83, (S)-2-Hydroxy-1-[4-(2-{6-[5-(2H-pyrazol-3-yl)-pyridin-2-yloxy]-benzofuran-3-yl}-ethyl)-piperazin-1-yl]-propan-1-one] were, in that order, 240 nM and 0.86 nM.
Turning to `C[C@H](O)C(=O)N1CCN(CCC2COc3cc(Oc4ccc(-c5ccn[nH]5)cn4)ccc32)CC1` (stereo partly drawn) [Example 84, (S)-2-Hydroxy-1-[4-(2-{6-[5-(2H-pyrazol-3-yl)-pyridin-2-yloxy]-2,3-dihydro-benzofuran-3-yl}-ethyl)-piperazin-1-yl]-propan-1-one], the IC50 in experiment [1] stood at 450 nM; against human LTA4 hydrolase, 1.3 nM.
The like results for `CC(C)(O)C(=O)N1CCN(CCc2coc3cc(Oc4ccc(-c5ccn[nH]5)cn4)ccc23)CC1` [Example 85, 2-Hydroxy-2-methyl-1-[4-(2-{6-[5-(2H-pyrazol-3-yl)-pyridin-2-yloxy]-benzofuran-3-yl}-ethyl)-piperazin-1-yl]-propan-1-one] were, in that order, 310 nM and 1.3 nM.
On to `C[C@H](O)C(=O)N1CCN(Cc2cn3cc(Oc4ccc(-c5ccn[nH]5)cc4)ccc3n2)CC1` [Example 87, (S)-2-Hydroxy-1-(4-{6-[4-(2H-pyrazol-3-yl)-phenoxy]-imidazo[1,2-a]pyridin-2-ylmethyl}-piperazin-1-yl)-propan-1-one], for which the IC50 is 260 nM in experiment [1] and 1 nM against human LTA4 hydrolase.
Take `CO[C@@H](C)C(=O)N1CCN(CCC2COc3cc(Oc4ccc(-c5ccn[nH]5)cn4)ccc32)CC1` (stereo partly drawn) [Example 88, (S)-2-Methoxy-1-[4-(2-{6-[5-(2H-pyrazol-3-yl)-pyridin-2-yloxy]-2,3-dihydro-benzofuran-3-yl}-ethyl)-piperazin-1-yl]-propan-1-one]: the IC50 in experiment [1] came out at 410 nM; against human LTA4 hydrolase, 1.2 nM.
Regarding `COCC(=O)N1CCN(Cc2cn3cc(Oc4ccc(-c5ccn[nH]5)cc4)ccc3n2)CC1` [Example 89, 2-Methoxy-1-(4-{6-[4-(2H-pyrazol-3-yl)-phenoxy]-imidazo[1,2-a]pyridin-2-ylmethyl}-piperazin-1-yl)-ethanone], the values for the IC50 (in experiment [1]; on human LTA4 hydrolase) were 470 nM and 0.66 nM, respectively.
The like results for `O=C(N1CCN(CCC2COc3cc(Oc4ccc(-c5ccn[nH]5)cn4)ccc32)CC1)C1(O)CC1` (stereo not shown) [Example 90, (1-Hydroxy-cyclopropyl)-[4-(2-{6-[5-(2H-pyrazol-3-yl)-pyridin-2-yloxy]-2,3-dihydro-benzofuran-3-yl}-ethyl)-piperazin-1-yl]-methanone] were, in that order, 640 nM and 1.5 nM.
With `C[C@@H](O)C(=O)N1CCN(CCC2COc3cc(Oc4ccc(-c5ccn[nH]5)cn4)ccc32)CC1` (stereo partly drawn) [Example 91, (R)-2-Hydroxy-1-[4-(2-{6-[5-(2H-pyrazol-3-yl)-pyridin-2-yloxy]-2,3-dihydro-benzofuran-3-yl}-ethyl)-piperazin-1-yl]-propan-1-one], the results for the IC50 (in experiment [1]; against human LTA4 hydrolase) were 930 nM and 2.2 nM, respectively.
